This is an account of results in PMC9500072, “Topical application of an irreversible small molecule inhibitor of lysyl oxidases ameliorates skin scarring and fibrosis” (Nature Communications, 2022).

For assay [1], the system named is bleomycin-induced skin fibrosis. In words: Bleomycin-induced skin fibrosis in mice. The format is in vivo, C57BL/6 mice. Further details: Skin LOX activity: scale not given here. On the procedure: With a pharmacokinetic and pharmacodynamic profile supportive of the potential as a potent topical anti-fibrotic treatment, we next moved to evaluate the in vivo efficacy of PXS-6302. Intradermal injections of bleomycin on alternate days for three weeks induces fibrosis[21],[22]. […] In this model, starting from Day 3 and continuing until Day 20, bleomycin-dosed mice (0.1U, alternate days), were treated once daily topically with 0% (vehicle) or 1.5% PXS-6302 oil in water cream (2 ×100 μL applications at a 10-min interval). […] As bleomycin also stimulates the expression of degrading enzymes such as matrix metalloproteases, the significant drop in hydroxyproline and immature crosslinks could be related to both the reduced production as well as the accelerated degradation of these matrix proteins.
Cell pellets or isolated tissue samples were completely hydrolyzed in 1.5 mL 6 M hydrochloric acid for 24 h at 105 °C. After complete hydrolysis, samples were dried using a vacuum dryer and reconstituted using 200 µL MilliQ water. The sample clean-up was performed using solid-phase extraction method which uses C18 and SCX solid-phase extraction cartridges for sample purification. The samples were run on UPLC-MS-MS (Mass Spectrometer: Thermo Scientific TSQ Endura Triple quadrupole, UPLC: Thermo Scientific Dionex UltiMate 3000) using Agilent RRHD SB-C18,2.1x50mm,1.8um analytical column and solvent A: 10 mM ammonium formate, 0.1% formic acid, 0.1% HFBA in H2O and solvent B: 10 mM ammonium formate, 0.1% formic acid, 0.1% HFBA in MeOH and analyzed as previously described. Limits of detection are listed in Supplementary Table S4.
8–10-week old C57BL/6 mice (n = 10 each group) were used to induce skin fibrosis. Bleomycin (Bleomycin sulfate from Streptomyces verticillicus, Euroasia) dry powder 1.5 IU/mg was reconstituted in saline at 2 IU/ml concentration. Starting on day 0 and continuing on alternate days thereafter, animals received subcutaneous injection of Bleomycin (0.1 IU in 50 µL volume) and/or saline on the right flank. For each animal, each dose was injected at a single site. The injections were continued for 20 days throughout the study. Starting from day three, vehicle cream or vehicle plus drug cream were applied topically once a daily treatment to a 2 cm × 2 cm area on the right dorsal flank of the animal for 20 days. On Day 21, all animals were euthanized and the skin tissue was collected for further histopathological analysis. The skin tissue was fixed in 4% PFA and sectioned skin was stained with Masson’s Trichrome, Collagen I and LOX and used to assess dermal fibrosis. Masson’s Trichrome was used to assess fibrotic index. Collagen Stain was subjectively scored for intensity as compared to control tissue. LOX Stain was subjectively scored as stain accumulation compared to control tissue. All images were assessed by assessors blinded to the treatment group. Composite skin/immunohistochemistry scoring tables used are in the Supplementary Information (Supplementary Tables S5, S6).

The target of a further assay is Adenosine A2A (Homo sapiens, UniProt P29274). Put plainly: Eurofins panel 200610. The format is binding.
Sequence of Adenosine A2A (P29274 whole entry): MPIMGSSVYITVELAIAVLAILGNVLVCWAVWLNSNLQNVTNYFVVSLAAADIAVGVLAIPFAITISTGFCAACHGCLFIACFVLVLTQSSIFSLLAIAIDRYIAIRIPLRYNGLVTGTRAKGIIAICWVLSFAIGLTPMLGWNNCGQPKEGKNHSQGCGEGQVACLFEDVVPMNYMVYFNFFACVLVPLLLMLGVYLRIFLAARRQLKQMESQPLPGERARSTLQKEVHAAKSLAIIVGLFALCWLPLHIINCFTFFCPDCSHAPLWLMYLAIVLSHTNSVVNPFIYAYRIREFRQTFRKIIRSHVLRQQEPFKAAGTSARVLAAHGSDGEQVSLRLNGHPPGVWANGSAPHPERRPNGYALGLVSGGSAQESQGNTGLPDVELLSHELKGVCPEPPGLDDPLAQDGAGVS
A further assay has as its target Adrenergic α1A (Rattus norvegicus, UniProt P43140). Put plainly: Eurofins panel 203100. The format is binding.
A further assay deals with Adrenergic α2A (Homo sapiens, UniProt P08913). Put plainly: Eurofins panel 203630. The format is binding.
Sequence of Adrenergic α2A (P08913 whole entry): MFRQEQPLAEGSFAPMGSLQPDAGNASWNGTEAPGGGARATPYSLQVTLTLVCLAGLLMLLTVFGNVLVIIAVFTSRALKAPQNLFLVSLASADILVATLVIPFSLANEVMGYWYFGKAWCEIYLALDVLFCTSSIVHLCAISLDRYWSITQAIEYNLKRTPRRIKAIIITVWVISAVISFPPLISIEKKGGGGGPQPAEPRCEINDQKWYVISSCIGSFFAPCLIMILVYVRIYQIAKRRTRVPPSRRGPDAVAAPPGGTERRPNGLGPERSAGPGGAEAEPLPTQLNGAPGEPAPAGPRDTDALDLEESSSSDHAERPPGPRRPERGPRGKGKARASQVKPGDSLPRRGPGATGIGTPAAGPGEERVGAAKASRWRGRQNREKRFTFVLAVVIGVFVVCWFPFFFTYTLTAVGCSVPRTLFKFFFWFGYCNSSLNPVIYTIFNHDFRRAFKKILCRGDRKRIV
In a further assay the target is Adrenergic β2 (Homo sapiens, UniProt P07550). In words: Eurofins panel 204110. The format is binding.
In a further assay the target is Dopamine D1 (Homo sapiens, UniProt P21728). In words: Eurofins panel 219500. Format: binding.
The target of another assay is Endothelin ETA (Homo sapiens, UniProt P25101). In words: Eurofins panel 224010. Format: binding.
Sequence of Endothelin ETA (P25101 21-427): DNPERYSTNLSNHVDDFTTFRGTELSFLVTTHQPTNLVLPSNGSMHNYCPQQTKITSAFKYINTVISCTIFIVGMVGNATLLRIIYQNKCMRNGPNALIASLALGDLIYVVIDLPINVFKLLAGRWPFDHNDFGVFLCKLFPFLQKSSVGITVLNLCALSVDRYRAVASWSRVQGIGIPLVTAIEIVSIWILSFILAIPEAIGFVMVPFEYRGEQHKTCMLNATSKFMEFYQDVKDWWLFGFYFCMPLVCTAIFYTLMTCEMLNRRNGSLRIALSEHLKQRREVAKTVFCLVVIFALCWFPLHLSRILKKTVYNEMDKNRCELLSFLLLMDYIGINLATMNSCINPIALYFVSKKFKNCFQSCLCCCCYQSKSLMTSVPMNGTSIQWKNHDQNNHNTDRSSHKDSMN
The test system of another assay is Glutamate, NMDA, Agonism. Put plainly: Eurofins panel 232810. The format is binding, rat.
In the next assay the target is Histamine H1 (Homo sapiens, UniProt P35367). Put plainly: Eurofins panel 239610. Format: binding.
Sequence of Histamine H1 (P35367 whole entry): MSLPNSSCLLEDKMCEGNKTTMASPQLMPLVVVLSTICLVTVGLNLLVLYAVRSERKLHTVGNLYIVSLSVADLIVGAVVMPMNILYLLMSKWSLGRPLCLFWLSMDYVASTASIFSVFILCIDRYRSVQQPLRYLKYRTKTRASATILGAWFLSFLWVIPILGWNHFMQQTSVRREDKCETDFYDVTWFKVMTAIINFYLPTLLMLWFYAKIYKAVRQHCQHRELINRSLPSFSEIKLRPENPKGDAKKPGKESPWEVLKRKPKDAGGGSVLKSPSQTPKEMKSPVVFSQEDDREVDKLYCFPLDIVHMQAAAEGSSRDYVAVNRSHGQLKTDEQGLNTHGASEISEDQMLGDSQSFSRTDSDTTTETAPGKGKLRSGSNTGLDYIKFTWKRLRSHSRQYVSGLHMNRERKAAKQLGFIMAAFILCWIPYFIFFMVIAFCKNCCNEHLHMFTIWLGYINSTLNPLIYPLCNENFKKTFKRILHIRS
Another assay concerns the target Muscarinic M2 (Homo sapiens, UniProt P08172). In words: Eurofins panel 252710. The format is binding.
For another assay, the target named is Muscarinic M3 (Homo sapiens, UniProt P20309). In words: Eurofins panel 252810. The format is binding.
Sequence of Muscarinic M3 (P20309 whole entry): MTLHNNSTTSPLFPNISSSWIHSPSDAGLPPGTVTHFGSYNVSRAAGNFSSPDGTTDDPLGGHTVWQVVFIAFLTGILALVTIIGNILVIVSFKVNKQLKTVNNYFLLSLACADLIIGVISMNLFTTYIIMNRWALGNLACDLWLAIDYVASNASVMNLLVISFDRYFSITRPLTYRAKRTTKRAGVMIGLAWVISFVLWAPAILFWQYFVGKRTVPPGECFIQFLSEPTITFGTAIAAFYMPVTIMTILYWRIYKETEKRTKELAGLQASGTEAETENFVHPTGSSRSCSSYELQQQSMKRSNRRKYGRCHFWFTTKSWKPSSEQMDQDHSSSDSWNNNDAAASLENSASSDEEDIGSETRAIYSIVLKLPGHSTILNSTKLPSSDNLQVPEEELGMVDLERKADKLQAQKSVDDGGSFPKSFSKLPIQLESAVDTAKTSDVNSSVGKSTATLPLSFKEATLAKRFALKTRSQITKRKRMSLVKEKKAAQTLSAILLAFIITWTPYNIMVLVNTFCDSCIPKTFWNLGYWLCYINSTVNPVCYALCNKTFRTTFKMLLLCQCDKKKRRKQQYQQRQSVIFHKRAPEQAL
The target in a further assay is Opiate κ(OP2, KOP) (Homo sapiens, UniProt P41145). Put plainly: Eurofins panel 260210. Format: binding.
Sequence of Opiate κ(OP2, KOP) (P41145 whole entry): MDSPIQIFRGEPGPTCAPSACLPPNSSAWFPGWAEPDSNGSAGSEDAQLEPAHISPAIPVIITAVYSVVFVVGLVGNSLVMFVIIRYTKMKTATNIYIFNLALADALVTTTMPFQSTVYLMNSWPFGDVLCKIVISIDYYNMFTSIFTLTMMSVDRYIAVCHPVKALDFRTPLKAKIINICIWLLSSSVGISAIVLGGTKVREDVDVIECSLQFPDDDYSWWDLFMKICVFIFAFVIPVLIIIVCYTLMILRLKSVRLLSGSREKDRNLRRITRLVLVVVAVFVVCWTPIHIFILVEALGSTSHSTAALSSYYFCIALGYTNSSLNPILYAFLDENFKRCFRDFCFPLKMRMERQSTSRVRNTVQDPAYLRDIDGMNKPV
The next assay concerns the target Opiate µ(OP3, MOP) (Homo sapiens, UniProt P35372). Put plainly: Eurofins panel 260410. The format is binding.
Assay [2] deals with Serotonin (5-Hydroxytryptamine) 5-HT1A (Homo sapiens, UniProt P08908). In words: Eurofins panel 271110. Format: binding.
Sequence of Serotonin (5-Hydroxytryptamine) 5-HT1A (P08908 whole entry): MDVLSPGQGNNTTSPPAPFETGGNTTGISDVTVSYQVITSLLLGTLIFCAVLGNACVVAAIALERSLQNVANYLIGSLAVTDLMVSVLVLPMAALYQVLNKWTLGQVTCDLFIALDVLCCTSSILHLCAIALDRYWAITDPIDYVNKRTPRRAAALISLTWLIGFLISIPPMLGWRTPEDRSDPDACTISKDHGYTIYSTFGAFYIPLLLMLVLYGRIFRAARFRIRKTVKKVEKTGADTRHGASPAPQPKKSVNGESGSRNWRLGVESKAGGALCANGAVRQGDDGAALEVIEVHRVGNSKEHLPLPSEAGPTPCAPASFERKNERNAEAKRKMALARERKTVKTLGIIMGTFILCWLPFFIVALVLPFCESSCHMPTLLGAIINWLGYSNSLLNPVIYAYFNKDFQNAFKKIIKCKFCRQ
The target of assay [3] is Serotonin (5-Hydroxytryptamine) 5-HT2B (Homo sapiens, UniProt P41595). Put plainly: Eurofins panel 271700. Format: binding.
In assay [4] the target is Transporter, Serotonin (5- Hydroxytryptamine) (SERT) (Homo sapiens, UniProt P31645). In words: Eurofins panel 274030. The format is binding.
Sequence of Transporter, Serotonin (5- Hydroxytryptamine) (SERT) (P31645 whole entry): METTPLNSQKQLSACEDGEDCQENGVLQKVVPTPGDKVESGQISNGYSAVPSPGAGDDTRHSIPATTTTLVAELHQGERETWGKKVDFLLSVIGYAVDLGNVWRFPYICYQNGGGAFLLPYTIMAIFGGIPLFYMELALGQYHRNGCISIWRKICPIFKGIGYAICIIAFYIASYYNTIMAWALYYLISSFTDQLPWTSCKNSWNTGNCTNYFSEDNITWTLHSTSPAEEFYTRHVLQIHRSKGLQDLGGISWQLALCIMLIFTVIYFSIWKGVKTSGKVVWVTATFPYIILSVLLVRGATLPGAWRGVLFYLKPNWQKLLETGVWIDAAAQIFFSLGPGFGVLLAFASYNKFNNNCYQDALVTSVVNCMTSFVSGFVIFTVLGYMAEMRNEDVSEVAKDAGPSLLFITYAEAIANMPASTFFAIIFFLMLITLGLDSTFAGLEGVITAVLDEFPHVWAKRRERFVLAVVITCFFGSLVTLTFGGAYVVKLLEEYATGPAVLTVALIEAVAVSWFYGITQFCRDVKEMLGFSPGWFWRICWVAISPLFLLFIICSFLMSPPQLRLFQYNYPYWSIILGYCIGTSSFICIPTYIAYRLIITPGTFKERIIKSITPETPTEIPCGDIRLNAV
[5] abbreviates: […] cream topically once daily, Day 3 to Day 20.

Molecules are shown by their SMILES. “And” between values parts separate entries of the source, which are not always exact repeats. Equal values may be shown once.

Sequence of Adrenergic α1A (P43140 whole entry): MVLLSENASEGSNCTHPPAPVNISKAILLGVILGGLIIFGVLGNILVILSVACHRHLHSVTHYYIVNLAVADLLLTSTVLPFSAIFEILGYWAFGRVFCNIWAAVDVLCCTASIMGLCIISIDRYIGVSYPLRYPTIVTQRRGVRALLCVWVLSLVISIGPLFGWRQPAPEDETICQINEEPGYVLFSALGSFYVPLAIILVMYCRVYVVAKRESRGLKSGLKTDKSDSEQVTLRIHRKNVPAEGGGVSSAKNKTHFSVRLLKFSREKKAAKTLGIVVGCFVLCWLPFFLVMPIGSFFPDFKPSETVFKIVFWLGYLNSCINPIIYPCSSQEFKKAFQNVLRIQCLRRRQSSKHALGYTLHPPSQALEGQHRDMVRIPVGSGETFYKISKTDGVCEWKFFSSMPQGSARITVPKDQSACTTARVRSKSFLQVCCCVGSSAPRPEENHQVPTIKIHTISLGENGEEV
Sequence of Opiate µ(OP3, MOP) (P35372 whole entry): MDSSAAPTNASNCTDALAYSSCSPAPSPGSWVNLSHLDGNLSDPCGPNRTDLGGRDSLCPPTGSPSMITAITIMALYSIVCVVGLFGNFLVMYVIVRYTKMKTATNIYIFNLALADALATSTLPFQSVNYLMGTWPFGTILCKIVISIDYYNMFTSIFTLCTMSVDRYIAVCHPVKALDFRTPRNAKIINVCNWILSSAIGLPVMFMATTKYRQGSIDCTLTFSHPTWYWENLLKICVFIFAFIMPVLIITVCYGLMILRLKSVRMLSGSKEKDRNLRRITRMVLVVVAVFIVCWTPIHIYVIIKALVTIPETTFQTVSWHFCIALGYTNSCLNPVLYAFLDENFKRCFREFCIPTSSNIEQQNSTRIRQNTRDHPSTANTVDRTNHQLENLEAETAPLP

Consider `NC/C=C(\F)CS(=O)(=O)c1ccccc1` [PXS-4787], for which, in assay [1] ([…] cream topically once daily), the composite skin score result is given as “Reduced”. The “immunohistochemistry COL1 score” value in [1] ([…] cream topically once daily) is reported as “decreas ed”. For the same compound, the “immunohistochemistry LOX score” value in [1] ([…] cream topically once daily) is recorded as “Decreased”. Also, the inhibition at 10 µM against Adenosine A2A (10 µM) was 15%; on Adrenergic α1A (10 µM), 1%; against Adrenergic α2A (10 µM) it was 1%; against Adrenergic β2 (10 µM), 10%; on Dopamine D1 (10 µM) it was 3%; against Endothelin ETA (10 µM), 4%. Also, the inhibition at 10 µM came to 14% at Histamine H1 (10 µM); 7% at Muscarinic M2 (10 µM); 27% at Muscarinic M3 (10 µM); 3% against Opiate κ(OP2, KOP) (10 µM); 3% at Opiate µ(OP3, MOP) (10 µM); 0% in [2] (10 µM). The inhibition at 10 µM came out at 21% in [3] (10 µM) and 8% in assay [4] (10 µM). Also, the “% Inh.” value in the assay with Glutamate, NMDA, Agonism (10 µM) worked out at 2%.
On to `NC/C=C(\F)C(F)(F)S(=O)(=O)c1ccccc1` [PXS-6302], for which the “Skin LOX activity” value in assay [1] (Bleo + PXS-6302, individual animals) is 0.8656 and 1.07 and 1.02 and 1.046 and 0.9944 and 1.027 and 1.022 and 1.017 and 1.088. Moreover, the Skin thickness in [1] (PXS-6302, individual animals) is 0.34 mm and 0.36 mm and 0.41 mm and 0.33 mm and 0.39 mm and 0.38 mm and 0.4 mm. For the same compound, the composite skin score result in assay [1] ([…] cream topically once daily) is “significantly reduced”. In addition, the “immunohistochemistry COL1 score” value in [1] ([…] cream topically once daily) was “significantly reduced”. Further, in assay [1] ([…] cream topically once daily), the “immunohistochemistry LOX score” value is listed as “significantly reduced”. In addition, the “LOX activity in skin” value in [1] (setting [5]) is “significant reduction”. Also, the “fibrosis as assessed by skin thickness” value in assay [1] (setting [5]) was “significantly reduced”. For the same compound, the hydroxyproline content result in assay [1] (setting [5]) was “reduced”. For the same compound, the “immature crosslinking (DHLNL and HLNL)” value in [1] (setting [5]) is listed as “reduced”. The inhibition at 30 µM at Adenosine A2A (read-out: % Inh.) is -6%; on Adrenergic α1A (read-out: % Inh.), 3%; on Adrenergic α2A (read-out: % Inh.), 17%; on Adrenergic β2 (read-out: % Inh.) it was 17%; at Dopamine D1 (read-out: % Inh.) it was 0%; on Endothelin ETA (read-out: % Inh.), 7%. Further, the inhibition at 30 µM on Histamine H1 (read-out: % Inh.) amounted to 10%; at Muscarinic M2 (read-out: % Inh.) it was 16%; at Muscarinic M3 (read-out: % Inh.) it was 15%; on Opiate κ(OP2, KOP) (read-out: % Inh.) it was 10%; on Opiate µ(OP3, MOP) (read-out: % Inh.), 12%; in [2] (read-out: % Inh.) it was 3%. Moreover, the inhibition at 30 µM worked out at 63% in [3] (read-out: % Inh.) and 20% in assay [4] (read-out: % Inh.). The “% Inh.” value in the assay on Glutamate, NMDA, Agonism (30 µM) was -16%.
